The data set relates to CCRIS mutagenicity, Ames/micronucleus/aberration tests. Nature of the data set: CCRIS mutagenicity studies.
The mark [1] stands for this setting: Test System: AMES SALMONELLA TYPHIMURIUM, Strain/Indicator: TA98, Metabolic Activation: NONE, Method: STANDARD PLATE.
Where [2] appears, read: Test System: AMES SALMONELLA TYPHIMURIUM, Strain/Indicator: TA98, Metabolic Activation: RAT, LIVER, S-9, AROCLOR 1254, Method: STANDARD PLATE.
[3] abbreviates: Test System: AMES SALMONELLA TYPHIMURIUM, Strain/Indicator: TA100, Metabolic Activation: NONE, Method: STANDARD PLATE.
Setting [4] is: Test System: AMES SALMONELLA TYPHIMURIUM, Strain/Indicator: TA100, Metabolic Activation: RAT, LIVER, S-9, AROCLOR 1254, Method: STANDARD PLATE.
The mark [5] stands for this setting: Test System: AMES SALMONELLA TYPHIMURIUM, Strain/Indicator: TA1535, Metabolic Activation: RAT, LIVER, S-9, AROCLOR 1254, Method: STANDARD PLATE.
Where [6] appears, read: Test System: AMES SALMONELLA TYPHIMURIUM, Strain/Indicator: TA1537, Metabolic Activation: RAT, LIVER, S-9, AROCLOR 1254, Method: STANDARD PLATE.
Setting [7] is: Test System: AMES SALMONELLA TYPHIMURIUM, Strain/Indicator: TA1538, Metabolic Activation: NONE, Method: STANDARD PLATE.
[8] abbreviates: Test System: AMES SALMONELLA TYPHIMURIUM, Strain/Indicator: TA1538, Metabolic Activation: RAT, LIVER, S-9, AROCLOR 1254, Method: STANDARD PLATE.
Setting [9] is: Test System: AMES SALMONELLA TYPHIMURIUM, Strain/Indicator: TA98, Metabolic Activation: NONE, Method: PREINCUBATION
Setting [10] is: Test System: AMES SALMONELLA TYPHIMURIUM, Strain/Indicator: TA100, Metabolic Activation: NONE, Method: PREINCUBATION
Setting [11] is: Test System: AMES SALMONELLA TYPHIMURIUM, Strain/Indicator: TA102, Metabolic Activation: NONE, Method: PREINCUBATION

Structures are written as SMILES. The source made the active and inactive calls. How the calls were made is not given here.

`Cc1ccc2nc(-c3ccc(N)cc3)sc2c1`: the mutagenic call is “inactive; negative” (Test System: AMES SALMONELLA TYPHIMURIUM, Strain/Indicator: 1537, Metabolic Activation: NONE, Method: STANDARD PLATE); “active; positive” (Test System: AMES SALMONELLA TYPHIMURIUM, Strain/Indicator: TA98, Metabolic Activation: HAMSTER, LIVER, S-9, AROCLOR 1254, Method: STANDARD PLATE); “inactive; negative” under setting [1]; “active; positive” under setting [2]; “active; positive” (Test System: AMES SALMONELLA TYPHIMURIUM, Strain/Indicator: TA100, Metabolic Activation: HAMSTER, LIVER, S-9, AROCLOR 1254, Method: STANDARD PLATE); “inactive; negative” under setting [3]. In addition, the mutagenic call is “active; positive” under setting [4]; “inactive; negative” (Test System: AMES SALMONELLA TYPHIMURIUM, Strain/Indicator: TA1535, Metabolic Activation: HAMSTER, LIVER, S-9, AROCLOR 1254, Method: STANDARD PLATE); “inactive; negative” under setting [5]; “active; positive” (Test System: AMES SALMONELLA TYPHIMURIUM, Strain/Indicator: TA1537, Metabolic Activation: HAMSTER, LIVER, S-9, AROCLOR 1254, Method: STANDARD PLATE); “active; positive” under setting [6]; “active; positive” (Test System: AMES SALMONELLA TYPHIMURIUM, Strain/Indicator: TA1538, Metabolic Activation: HAMSTER, LIVER, S-9, AROCLOR 1254, Method: STANDARD PLATE). Besides, the mutagenic call under setting [7] is “inactive; negative”; the mutagenic call under setting [8] is “active; positive”; the mutagenic call (Test System: MOUSE LYMPHOMA, Strain/Indicator: L5178Y (TK+/TK-), Metabolic Activation: NONE, Method: SUSPENSION/PLATE) is “active; positive. reevaluation of results: positive”; the mutagenic call (Test System: MOUSE LYMPHOMA, Strain/Indicator: L5178Y (TK+/TK-), Metabolic Activation: RAT, LIVER, S-9, AROCLOR 1254, Method: SUSPENSION/PLATE) was “active; positive. reevaluation of results: positive”.

`CC(C)(S)[C@@H](N)C(=O)O`: the mutagenic call is, setting by setting: (Test System: AMES SALMONELLA TYPHIMURIUM, Strain/Indicator: TA92, Metabolic Activation: HOMOGENIZED V-79, Method: STANDARD PLATE) “active; positive”; (Test System: AMES SALMONELLA TYPHIMURIUM, Strain/Indicator: TA92, Metabolic Activation: NONE, Method: STANDARD PLATE) “active; positive”; (Test System: AMES SALMONELLA TYPHIMURIUM, Strain/Indicator: TA92, Metabolic Activation: RAT, KIDNEY, S-9, Method: STANDARD PLATE) “active; positive”; (Test System: AMES SALMONELLA TYPHIMURIUM, Strain/Indicator: TA92, Metabolic Activation: RAT, LIVER, S-9, Method: STANDARD PLATE) “active; positive”; under setting [3], “active; positive”; (Test System: AMES SALMONELLA TYPHIMURIUM, Strain/Indicator: TA100, Metabolic Activation: RAT, KIDNEY, S-9, Method: STANDARD PLATE) “active; positive”. Further, the mutagenic call (Test System: AMES SALMONELLA TYPHIMURIUM, Strain/Indicator: TA100, Metabolic Activation: RAT, LIVER, S-9, Method: STANDARD PLATE) is “active; positive”; the mutagenic call (Test System: AMES SALMONELLA TYPHIMURIUM, Strain/Indicator: TA102, Metabolic Activation: NONE, Method: STANDARD PLATE) is “active; positive”; the mutagenic call (Test System: CHINESE HAMSTER V-79, Strain/Indicator: V-79/6-THIOGUANINE, Metabolic Activation: NONE, Method: STANDARD PLATE) is “inactive; negative”.

In the case of `CC(=O)OC/C=C(\C)CCC=C(C)C`, the mutagenic call is “inactive; negative; precipitation occurred at 100 ug/ml” (End Point: IN VITRO CHROMOSOMAL ABERRATIONS, Test System: CHINESE HAMSTER OVARY CELLS, Metabolic Activation: NONE) and “inactive; negative; precipitation occurred at 150 ug/ml” (End Point: IN VITRO CHROMOSOMAL ABERRATIONS, Test System: CHINESE HAMSTER OVARY CELLS, Metabolic Activation: RAT, LIVER, S-9, AROCLOR 1254).

Consider `CC(C)c1ccc(/C=C/c2ccc(N)cc2)cc1`, for which the mutagenic call is “inactive; negative” under setting [1]; “active; positive” (Test System: AMES SALMONELLA TYPHIMURIUM, Strain/Indicator: TA98, Metabolic Activation: RAT, LIVER, S9, AROCLOR, Method: STANDARD PLATE); “inactive; negative” under setting [3]; “active; positive” (Test System: AMES SALMONELLA TYPHIMURIUM, Strain/Indicator: TA100, Metabolic Activation: RAT, LIVER, S9, AROCLOR, Method: STANDARD PLATE).

With `COc1ccc(CON(OC(C)=O)C(=O)c2ccccc2)cc1`, the mutagenic call was “active; positive” under setting [3] and “active; positive” (Test System: AMES SALMONELLA TYPHIMURIUM, Strain/Indicator: TA100, Metabolic Activation: RAT, S-9, AROCLOR, Method: STANDARD PLATE).

Consider `Cc1ccc2c(C)c3ccc4ccccc4c3nc2c1`, for which the mutagenic call is, setting by setting: (Test System: AMES SALMONELLA TYPHIMURIUM, Strain/Indicator: TA97A, Metabolic Activation: NONE, Method: PREINCUBATION) “active; positive”; under setting [9], “active; positive”; under setting [10], “active; positive”; under setting [4], “active; positive”; under setting [11], “active; positive”.

Take `O=C1C=CCO1`: the mutagenic call was “inactive; negative” (Test System: AMES SALMONELLA TYPHIMURIUM, Strain/Indicator: TA98, Metabolic Activation: RAT, LIVER, MICROSOMES, PHENOBARBITAL, Method: STANDARD PLATE) and “inactive; negative” (Test System: AMES SALMONELLA TYPHIMURIUM, Strain/Indicator: TA100, Metabolic Activation: RAT, LIVER, MICROSOMES, PHENOBARBITAL, Method: STANDARD PLATE).

For `CC(=O)OCCN(CCC#N)c1ccc(N=Nc2ccc([N+](=O)[O-])cc2)cc1`, the mutagenic call (End Point: IN VITRO CHROMOSOMAL ABERRATIONS, Test System: CHL CELLS, Metabolic Activation: RAT, LIVER, S-9, SODIUM PHENOBARBITAL AND 5,6-BENZOFLAVONE) was “inactive; negative”.

With `CCC(C(C)O)[N+](=O)[O-]` (configuration not stated), the mutagenic call is, setting by setting: under setting [9], “inactive; negative”; (Test System: AMES SALMONELLA TYPHIMURIUM, Strain/Indicator: TA98, Metabolic Activation: RAT, LIVER, S-9, AROCLOR, Method: PREINCUBATION) “inactive; negative”; under setting [10], “inactive; negative”; (Test System: AMES SALMONELLA TYPHIMURIUM, Strain/Indicator: TA100, Metabolic Activation: RAT, LIVER, S-9, AROCLOR, Method: PREINCUBATION) “inactive; negative”; under setting [11], “inactive; negative”; (Test System: AMES SALMONELLA TYPHIMURIUM, Strain/Indicator: TA102, Metabolic Activation: RAT, LIVER, S-9, AROCLOR, Method: PREINCUBATION) “inactive; negative”.

Take `O=[N+]([O-])C1=Cc2ccc3ccc4cccc5cc1c2c3c45`: the mutagenic call by setting is: under setting [1], “active; positive”; under setting [2], “active; positive”; under setting [3], “active; positive”; under setting [4], “inactive; negative”; (Test System: AMES SALMONELLA TYPHIMURIUM, Strain/Indicator: TA1535, Metabolic Activation: NONE, Method: STANDARD PLATE) “inactive; negative”; under setting [5], “inactive; negative”. Further, the mutagenic call by setting is: (Test System: AMES SALMONELLA TYPHIMURIUM, Strain/Indicator: TA1537, Metabolic Activation: NONE, Method: STANDARD PLATE) “active; positive”; under setting [6], “active; positive”; under setting [7], “active; positive”; under setting [8], “active; positive”.
